From PMC8493801, “Exploring the Monoterpene Indole Alkaloid Scaffold for Reversing P-Glycoprotein-Mediated Multidrug Resistance in Cancer” (Pharmaceuticals, 2021) come the findings set out here.

The structures appear in SMILES notation.

One series relates to sensitive L5178Y mouse T-lymphoma cells (PAR). Put plainly: MTT antiproliferative assay, sensitive cells. Type of series: cell-based. As to conditions: 72 h, mean ± SD. How it is done:
(§1) Non-cancer mouse embryonic fibroblasts (NIH/3T3) were also used.
(§2) L5178Y mouse T-lymphoma cells (ECACC catalog no. 87111908, US FDA, Silver Spring, MD, USA) were transfected with the pHa MDR1/A retrovirus as previously reported. The ABCB1 (P-gp) overexpressing cells were selected by culturing the infected cells with 60 ng/mL of colchicine (Sigma-Aldrich Chemie GmbH, Steinheim, Germany) to preserve the MDR phenotype. L5178Y (parental, PAR) mouse T-cell lymphoma cells and the human ABCB1-transfected subline were cultured in McCoy’s 5A supplemented with 10% heat-inactivated horse serum, 100 U/L L-glutamine, and 100 mg/L penicillin-streptomycin mixture, all obtained from Sigma-Aldrich. The mouse embryonic fibroblast (NIH 3T3) cell line was purchased from ATCC (CRL-1658) and was cultured in DMEM medium supplemented with 10% fetal bovine serum. These adherent cells were detached using 0.25% trypsin and 0.02% EDTA for 5 min at 37 °C. Before the antiproliferative assay using NIH 3T3 cell line, the cells were seeded in untreated 96-well flat bottomed microtiter plates, following a 4 h incubation period in a humidified atmosphere (5% CO2, 95% air) at 37 °C.
The assay was performed according to the previously applied experimental settings.
On the technique in general: Formazan colour is commonly taken as a measure of viable cells.
On to `CCC1CN(C)C2Cc3c([nH]c4ccccc34)C(=NN=Cc3ccc(O)cc3)CC1C2C(=O)OC` (stereo not drawn) [Compound 13, 3-[(4″-hydroxybenzylidene)hydrazineylidene]dregamine], for which the IC50 worked out at 26.4 ± 0.53 µM.
The compound `CCC1CN(C)C2Cc3c([nH]c4ccccc34)C(=NN=Cc3ccc(OC)cc3)CC1C2C(=O)OC` (stereo not drawn) [Compound 14, 3-[(4″-methoxybenzylidene)hydrazineylidene]dregamine] returned an IC50 of 18.1 ± 2.69 µM.
In turn, `C=CCOc1ccc(C=NN=C2CC3C(CC)CN(C)C(Cc4c2[nH]c2ccccc42)C3C(=O)OC)cc1` (stereo not drawn) [Compound 15, 3-[(4″-(allyloxy)benzylidene)hydrazineylidene]dregamine] showed an IC50 of 12.6 ± 1.06 µM.
In turn, `CCC1CN(C)C2Cc3c([nH]c4ccccc34)C(=NN=Cc3ccc(OCc4ccccc4)cc3)CC1C2C(=O)OC` (stereo not drawn) [Compound 16, 3-[(4″-(benzyloxy)benzylidene)hydrazineylidene]dregamine] showed an IC50 of 8.93 ± 0.75 µM.

In a further series the test system is mouse embryonic fibroblasts (NIH/3T3). As to the kind of experiment: MTT antiproliferative assay, non-cancer cells. Type of series: cell-based. Particulars: IC50 NIH/3T3 / IC50 MDR. How it is done: as §1
In addition, the antiproliferative activity of the compounds was also evaluated on non-cancerous mouse embryonic fibroblast cells (NIH/3T3), whose values were compared with those of PAR and MDR cells by evaluation of the selective index (SI) values. […] The highest selective index values (SIC/A = 9.39; SIC/B = 10.79) were found for the derivative bearing the trimethoxyphenyl substituent (17).
as §2
As to `CCC1CN(C)C2Cc3c([nH]c4ccccc34)C(=NN=Cc3ccc(O)cc3)CC1C2C(=O)OC` (stereo not drawn) [Compound 13, 3-[(4″-hydroxybenzylidene)hydrazineylidene]dregamine], the “SI C/B (Selectivity Index)” value came to 3.94.
As to `CCC1CN(C)C2Cc3c([nH]c4ccccc34)C(=NN=Cc3ccc(OC)cc3)CC1C2C(=O)OC` (stereo not drawn) [Compound 14, 3-[(4″-methoxybenzylidene)hydrazineylidene]dregamine], the “SI C/B (Selectivity Index)” value is given as 2.28.
As to `C=CCOc1ccc(C=NN=C2CC3C(CC)CN(C)C(Cc4c2[nH]c2ccccc42)C3C(=O)OC)cc1` (stereo not drawn) [Compound 15, 3-[(4″-(allyloxy)benzylidene)hydrazineylidene]dregamine], the “SI C/B (Selectivity Index)” value is on record as 2.32.
In the case of `CCC1CN(C)C2Cc3c([nH]c4ccccc34)C(=NN=Cc3ccc(OCc4ccccc4)cc3)CC1C2C(=O)OC` (stereo not drawn) [Compound 16, 3-[(4″-(benzyloxy)benzylidene)hydrazineylidene]dregamine], the “SI C/B (Selectivity Index)” value is given as 3.12.

The series is the same for the next values; noted with them: IC50 NIH/3T3 / IC50 PAR.
Consider `CCC1CN(C)C2Cc3c([nH]c4ccccc34)C(=NN=Cc3ccc(O)cc3)CC1C2C(=O)OC` (stereo not drawn) [Compound 13, 3-[(4″-hydroxybenzylidene)hydrazineylidene]dregamine], for which the “SI C/A (Selectivity Index)” value is recorded as 1.16.
Same read-out and setting: as for `CCC1CN(C)C2Cc3c([nH]c4ccccc34)C(=NN=Cc3ccc(OC)cc3)CC1C2C(=O)OC` (stereo not drawn) [Compound 14, 3-[(4″-methoxybenzylidene)hydrazineylidene]dregamine], the figure is 1.09; as for `C=CCOc1ccc(C=NN=C2CC3C(CC)CN(C)C(Cc4c2[nH]c2ccccc42)C3C(=O)OC)cc1` (stereo not drawn) [Compound 15, 3-[(4″-(allyloxy)benzylidene)hydrazineylidene]dregamine], 1.18.
Still for that read-out and setting: as for `CCC1CN(C)C2Cc3c([nH]c4ccccc34)C(=NN=Cc3ccc(OCc4ccccc4)cc3)CC1C2C(=O)OC` (stereo not drawn) [Compound 16, 3-[(4″-(benzyloxy)benzylidene)hydrazineylidene]dregamine], the figure is 2.04.

The series is the same for the next values; noted with them: NIH3T3; non-cancer mouse embryonic fibroblasts, MTT; read-out: IC50 NIH/3T3 (C).
For `CCC1CN(C)C2Cc3c([nH]c4ccccc34)C(=NN=Cc3ccc(O)cc3)CC1C2C(=O)OC` (stereo not drawn) [Compound 13, 3-[(4″-hydroxybenzylidene)hydrazineylidene]dregamine], the IC50 amounted to 30.5 ± 0.95 µM.
`CCC1CN(C)C2Cc3c([nH]c4ccccc34)C(=NN=Cc3ccc(OC)cc3)CC1C2C(=O)OC` (stereo not drawn) [Compound 14, 3-[(4″-methoxybenzylidene)hydrazineylidene]dregamine]: the IC50 is 19.7 ± 0.41 µM.
On the same count and under the same terms, as for `C=CCOc1ccc(C=NN=C2CC3C(CC)CN(C)C(Cc4c2[nH]c2ccccc42)C3C(=O)OC)cc1` (stereo not drawn) [Compound 15, 3-[(4″-(allyloxy)benzylidene)hydrazineylidene]dregamine], the figure is 14.9 ± 0.72 µM; as for `CCC1CN(C)C2Cc3c([nH]c4ccccc34)C(=NN=Cc3ccc(OCc4ccccc4)cc3)CC1C2C(=O)OC` (stereo not drawn) [Compound 16, 3-[(4″-(benzyloxy)benzylidene)hydrazineylidene]dregamine], 18.3 ± 1.3 µM.

For a further series, the system named is human ABCB1-transfected L5178Y mouse lymphoma cells. As to the kind of experiment: Checkerboard combination assay with doxorubicin. The format is cell-based. On the set-up: key to CI at ED50 (combination index): CI <1 synergy, =1 additive, >1 antagonism. As to conditions: MDR cells. How it is done: The in vitro interactions between the compounds and the well-known antitumor drug and P-gp substrate, doxorubicin, were evaluated in a combination chemotherapy model on human ABCB1-transfected mouse T-lymphoma cells. The nature of drug–drug interactions was assessed by determination of the combination index (CI) using the Chou and Talalay method (Figure 1), and therefore evaluated as synergistic (CI < 1), additive (CI = 1), or antagonistic (CI > 1).
Doxorubicin (2 mg/mL, Teva Pharmaceuticals, Budapest, Hungary) was serially diluted horizontally in 100 µL as previously described, starting with 8.6 µM. The resistance modifier was subsequently diluted vertically in 50 µL; the starting concentration was determined based on the IC50. […] The checkerboard plates were kept for 72 h at 37 °C in a CO2 incubator, and at the end of the incubation period, the cell growth was determined by MTT staining method, as described earlier. Drug interactions were evaluated using Calcusyn software. Each dose–response curve (for individual agents as well as combinations) was fit to a linear model using the median effect equation in order to obtain the median effect value (corresponding to the IC50) and slope (m). The goodness-of-fit was assessed using the linear correlation coefficient, r, and only data from analysis with r > 0.90 were presented. The extent of interaction between drugs was expressed using the combination index, in which a CI value close to 1 indicates additivity, while a CI < 1 is defined as synergy and a CI > 1 as antagonism.
`CCC1CN(C)C2Cc3c([nH]c4ccccc34)C(=NN=Cc3ccc(O)cc3)CC1C2C(=O)OC` (stereo not drawn) [Compound 13, 3-[(4″-hydroxybenzylidene)hydrazineylidene]dregamine]: the Interaction entry was “Synergism”.
The same measure, in the same setting: as for `CCC1CN(C)C2Cc3c([nH]c4ccccc34)C(=NN=Cc3ccc(OC)cc3)CC1C2C(=O)OC` (stereo not drawn) [Compound 14, 3-[(4″-methoxybenzylidene)hydrazineylidene]dregamine], the entry is “Synergism”; as for `C=CCOc1ccc(C=NN=C2CC3C(CC)CN(C)C(Cc4c2[nH]c2ccccc42)C3C(=O)OC)cc1` (stereo not drawn) [Compound 15, 3-[(4″-(allyloxy)benzylidene)hydrazineylidene]dregamine], “Strong Synergism”.
Consider `CCC1CN(C)C2Cc3c([nH]c4ccccc34)C(=NN=Cc3ccc(OCc4ccccc4)cc3)CC1C2C(=O)OC` (stereo not drawn) [Compound 16, 3-[(4″-(benzyloxy)benzylidene)hydrazineylidene]dregamine], for which the Interaction entry is “Synergism”.

Staying with this series, now noted: best ratio, MDR cells.
With `CCC1CN(C)C2Cc3c([nH]c4ccccc34)C(=NN=Cc3ccc(O)cc3)CC1C2C(=O)OC` (stereo not drawn) [Compound 13, 3-[(4″-hydroxybenzylidene)hydrazineylidene]dregamine], the “CI at ED50 (combination index)” value is 0.361.
`CCC1CN(C)C2Cc3c([nH]c4ccccc34)C(=NN=Cc3ccc(OC)cc3)CC1C2C(=O)OC` (stereo not drawn) [Compound 14, 3-[(4″-methoxybenzylidene)hydrazineylidene]dregamine]: the “CI at ED50 (combination index)” value was determined as 0.402.
On the same count and under the same terms, as for `C=CCOc1ccc(C=NN=C2CC3C(CC)CN(C)C(Cc4c2[nH]c2ccccc42)C3C(=O)OC)cc1` (stereo not drawn) [Compound 15, 3-[(4″-(allyloxy)benzylidene)hydrazineylidene]dregamine], the figure is 0.177; as for `CCC1CN(C)C2Cc3c([nH]c4ccccc34)C(=NN=Cc3ccc(OCc4ccccc4)cc3)CC1C2C(=O)OC` (stereo not drawn) [Compound 16, 3-[(4″-(benzyloxy)benzylidene)hydrazineylidene]dregamine], 0.34.

The next series deals with human ABCB1-gene transfected L5178Y subline (MDR).
Test: not given
Settings: not given
Regarding `CCC1CN(C)C2Cc3c([nH]c4ccccc34)C(=NN=Cc3ccc(O)cc3)CC1C2C(=O)OC` (stereo not drawn) [Compound 13, 3-[(4″-hydroxybenzylidene)hydrazineylidene]dregamine], the IC50 stood at 7.75 ± 0.55 µM.
In turn, `CCC1CN(C)C2Cc3c([nH]c4ccccc34)C(=NN=Cc3ccc(OC)cc3)CC1C2C(=O)OC` (stereo not drawn) [Compound 14, 3-[(4″-methoxybenzylidene)hydrazineylidene]dregamine] yielded an IC50 of 8.64 ± 0.67 µM.
The compound `C=CCOc1ccc(C=NN=C2CC3C(CC)CN(C)C(Cc4c2[nH]c2ccccc42)C3C(=O)OC)cc1` (stereo not drawn) [Compound 15, 3-[(4″-(allyloxy)benzylidene)hydrazineylidene]dregamine] displayed an IC50 of 6.41 ± 0.33 µM.
Same read-out and setting: with `CCC1CN(C)C2Cc3c([nH]c4ccccc34)C(=NN=Cc3ccc(OCc4ccccc4)cc3)CC1C2C(=O)OC` (stereo not drawn) [Compound 16, 3-[(4″-(benzyloxy)benzylidene)hydrazineylidene]dregamine] the figure was 5.86 ± 0.54 µM.

Still in this series, the particulars now being: RR ≤ 0.5 means CS effect.
As to `C=CCOc1ccc(C=NN=C2CC3C(CC)CN(C)C(Cc4c2[nH]c2ccccc42)C3C(=O)OC)cc1` (stereo not drawn) [Compound 15, 3-[(4″-(allyloxy)benzylidene)hydrazineylidene]dregamine], the “RR (relative resistance ratio) = IC50MDR/IC50PAR” value is 0.51.
As to `CCC1CN(C)C2Cc3c([nH]c4ccccc34)C(=NN=Cc3ccc(OCc4ccccc4)cc3)CC1C2C(=O)OC` (stereo not drawn) [Compound 16, 3-[(4″-(benzyloxy)benzylidene)hydrazineylidene]dregamine], the “RR (relative resistance ratio) = IC50MDR/IC50PAR” value is 0.66.
